ChEMBL document CHEMBL1201861, “Genomics of Drug Sensitity in Cancer screening data, Wellcome Trust Sanger Institute”
Where a SMILES comes first, the peptide text is derived from it. The star is where a group is joined. Cbz = O=C(OCc1ccccc1)*

Tests used:
Format in all cases: functional, cell-based
MES-SA = assay: cells; conditions: Homo sapiens;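 also: growth inhibition of human MES-SA cells, read out with a cell viability assay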
Description: SANGER: Inhibition of human MES-SA cell growth in a cell viability assay.

HCC1143 = assay: cells; conditions: Homo sapiens;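 also: growth inhibition of human HCC1143 cells, read out with a cell viability assay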
Description: SANGER: Inhibition of human HCC1143 cell growth in a cell viability assay.

NCI-H838 = assay: cells; conditions: Homo sapiens;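 also: growth inhibition of human NCI-H838 cells, read out by a cell viability assay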
Description: SANGER: Inhibition of human NCI-H838 cell growth in a cell viability assay.

NCI-H2227 = assay: cells; conditions: Homo sapiens;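 also: growth inhibition of the human cell line, read out with a cell viability assay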
Description: SANGER: Inhibition of human NCI-H2227 cell growth in a cell viability assay.

Calu-1 = assay: SANGER: Inhibition of human Calu-1 cell growth in a cell viability assay.
Caov-3 cell line = assay: cells; conditions: Homo sapiens;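 also: cell growth inhibition read out by a viability assay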
Description: SANGER: Inhibition of human Caov-3 cell growth in a cell viability assay.

SNU-475 = assay: cells; conditions: Homo sapiens
Description: SANGER: Inhibition of human SNU-475 cell growth in a cell viability assay.

EFE-184 = assay: cells; conditions: Homo sapiens
Description: SANGER: Inhibition of human EFE-184 cell growth in a cell viability assay.

EW-7 = assay: SANGER: Inhibition of human EW-7 cell growth in a cell viability assay.
RT-4 = assay: SANGER: Inhibition of human RT4 cell growth in a cell viability assay.
MDA-MB-468 = assay: cells; conditions: Homo sapiens
Description: SANGER: Inhibition of human MDA-MB-468 cell growth in a cell viability assay.

NCI-H1734 = assay: cells; conditions: Homo sapiens;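 also: growth inhibition of human NCI-H1734 cells, read out with a cell viability assay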
Description: SANGER: Inhibition of human NCI-H1734 cell growth in a cell viability assay.

COLO 205 = assay: cells; conditions: Homo sapiens
Description: SANGER: Inhibition of human COLO-205 cell growth in a cell viability assay.

CP67-MEL = assay: SANGER: Inhibition of human CP67-MEL cell growth in a cell viability assay.
KP-N-RT-BM-1 = assay: SANGER: Inhibition of human KP-N-RT-BM-1 cell growth in a cell viability assay.
NCI-H2107 = assay: SANGER: Inhibition of human NCI-H2107 cell growth in a cell viability assay.
NCI-H128 = assay: SANGER: Inhibition of human NCI-H128 cell growth in a cell viability assay.
CHP-134 = assay: SANGER: Inhibition of human CHP-134 cell growth in a cell viability assay.
NCI-H1048 = assay: cells; conditions: Homo sapiens;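 also: growth inhibition of human NCI-H1048 cells, read out with a cell viability assay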
Description: SANGER: Inhibition of human NCI-H1048 cell growth in a cell viability assay.

SW900 = assay: cells; conditions: Homo sapiens;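 also: IC50 is the concentration that inhibits SW900 cell growth, measured by a cell viability assay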
Description: SANGER: Inhibition of human SW900 cell growth in a cell viability assay.

BALL-1 = assay: cells; conditions: Homo sapiens;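 also: growth inhibition of BALL-1 cells, read out with a cell viability assay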
Description: SANGER: Inhibition of human BALL-1 cell growth in a cell viability assay.

RH-18 = assay: cells; conditions: Homo sapiens, Rh18;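 also: growth inhibition of human RH-18 cells, read out with a cell viability assay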
Description: SANGER: Inhibition of human RH-18 cell growth in a cell viability assay.

TGBC11TKB = assay: cells; conditions: Homo sapiens;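 also: growth inhibition of human TGBC11TKB cells, measured by a cell viability assay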
Description: SANGER: Inhibition of human TGBC11TKB cell growth in a cell viability assay.

YH-13 = assay: cells; conditions: Homo sapiens;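 also: cell viability readout of growth suppression in the human YH-13 cell line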
Description: SANGER: Inhibition of human YH-13 cell growth in a cell viability assay.

NBsusSR = assay: cells; conditions: Homo sapiens;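 also: growth inhibition of the human cell line, read out with a cell viability assay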
Description: SANGER: Inhibition of human NBsusSR cell growth in a cell viability assay.

EPLC-272H = assay: cells; conditions: Homo sapiens
Description: SANGER: Inhibition of human EPLC-272H cell growth in a cell viability assay.

LU-135 = assay: cells; conditions: Homo sapiens
Description: SANGER: Inhibition of human LU-135 cell growth in a cell viability assay.

A549 = assay: cells; conditions: Homo sapiens;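 also: growth inhibition of A549 cells, read out with a cell viability assay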
Description: SANGER: Inhibition of human A549 cell growth in a cell viability assay.

ECC10 = assay: cells; conditions: Homo sapiens;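 also: growth inhibition of ECC10 cells, read out by a cell viability assay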
Description: SANGER: Inhibition of human ECC10 cell growth in a cell viability assay.

SW 1116 = assay: cells; conditions: Homo sapiens;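 also: growth inhibition of SW1116 cells, read out with a cell viability assay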
Description: SANGER: Inhibition of human SW1116 cell growth in a cell viability assay.

NCI-H1666 = assay: cells; conditions: Homo sapiens;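 also: growth inhibition of the cell line, read out with a cell viability assay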
Description: SANGER: Inhibition of human NCI-H1666 cell growth in a cell viability assay.

H9 = assay: cells; conditions: Homo sapiens
Description: SANGER: Inhibition of human H9 cell growth in a cell viability assay.

NCI-H2291 = assay: cells; conditions: Homo sapiens
Description: SANGER: Inhibition of human NCI-H2291 cell growth in a cell viability assay.

ECC12 = assay: cells; conditions: Homo sapiens
Description: SANGER: Inhibition of human ECC12 cell growth in a cell viability assay.

Caov-4 = assay: cells; conditions: Homo sapiens
Description: SANGER: Inhibition of human Caov-4 cell growth in a cell viability assay.

TC-YIK = assay: SANGER: Inhibition of human TC-YIK cell growth in a cell viability assay.

SMILES	IC50 (NCI-H2227)	IC50 (CP67-MEL)	IC50 (KP-N-RT-BM-1)	IC50 (NCI-H128; Homo sapiens, NCI-H128)	IC50 (CHP-134)	IC50 (NCI-H1048)	IC50 (SW900)	IC50 (BALL-1)	IC50 (RH-18)	IC50 (TGBC11TKB)	IC50 (YH-13)	IC50 (NBsusSR)	IC50 (EPLC-272H)	IC50 (LU-135)	IC50 (A549)	IC50 (SW 1116)	IC50 (NCI-H1666)	IC50 (NCI-H2291)	other results
COc1ccc(-c2cc3nccn3c(Nc3ncccc3C(N)=O)n2)cc1OC	> 8 µM																		IC50 (MES-SA): 0.96 µM; IC50 (HCC1143): > 8 µM; IC50 (NCI-H838): > 8 µM; IC50 (Calu-1): > 8 µM; IC50 (Caov-3 cell line): > 8 µM; IC50 (SNU-475): > 8 µM; IC50 (EFE-184): > 8 µM; IC50 (EW-7): 1.98 µM; IC50 (RT-4): 6.56 µM; IC50 (MDA-MB-468): > 8 µM; IC50 (NCI-H1734): 4.86 µM; IC50 (COLO 205): 2.35 µM
C=CC(=O)N1CCCC(Nc2nc(Nc3ccc(N(C)C(=O)CC)cc3)nc3[nH]cnc23)C1 (stereo unspecified)		> 10.2 µM	> 10.2 µM	> 10.2 µM															IC50 (NCI-H2107): > 10.2 µM
COc1ccc(N(C(=O)Oc2c(C)cccc2C)c2ccnc(Nc3ccc(N4CCN(C)CC4)cc3)n2)c(OC)c1		> 5.12 µM	> 5.12 µM	> 5.12 µM															IC50 (NCI-H2107): > 5.12 µM
OC[C@H](Cc1ccccc1)Nc1nc(Oc2ccc3c(c2)CCC3)nc2c1ncn2Cc1ccc(-c2ccccc2)cc1	> 10.2 µM																		IC50 (MES-SA): > 10.2 µM; IC50 (HCC1143): > 10.2 µM; IC50 (NCI-H838): > 10.2 µM; IC50 (Calu-1): 2.61 µM; IC50 (Caov-3 cell line): > 10.2 µM; IC50 (SNU-475): > 10.2 µM; IC50 (EFE-184): > 10.2 µM; IC50 (EW-7): > 10.2 µM; IC50 (RT-4): > 10.2 µM; IC50 (MDA-MB-468): > 10.2 µM; IC50 (NCI-H1734): > 10.2 µM; IC50 (COLO 205): 2.29 µM
O=C1NC(=O)c2c1c(-c1ccccc1Cl)cc1[nH]c3ccc(O)cc3c21					> 2 µM	> 2 µM	> 2 µM	> 2 µM	> 2 µM	> 2 µM	> 2 µM	0.952 µM	> 2 µM	> 2 µM	> 2 µM	> 2 µM	> 2 µM	> 2 µM	IC50 (ECC10): 1.41 µM; IC50 (H9): 0.832 µM
Cc1cc(N2CCOCC2)cc2[nH]c(-c3c(NC[C@@H](O)c4cccc(Cl)c4)cc[nH]c3=O)nc12		0.898 µM	1.44 µM	> 5.12 µM															IC50 (NCI-H2107): > 5.12 µM
O=S(=O)(O)c1ccc2cc(/N=N/c3cc(S(=O)(=O)O)c4cccnc4c3O)ccc2c1	> 16 µM																		IC50 (MES-SA): > 16 µM; IC50 (HCC1143): > 16 µM; IC50 (NCI-H838): > 16 µM; IC50 (Calu-1): > 16 µM; IC50 (Caov-3 cell line): > 16 µM; IC50 (SNU-475): > 16 µM; IC50 (EFE-184): > 16 µM; IC50 (ECC12): > 16 µM; IC50 (EW-7): > 16 µM; IC50 (RT-4): > 16 µM; IC50 (MDA-MB-468): > 16 µM; IC50 (NCI-H1734): > 16 µM; IC50 (Caov-4): > 16 µM; IC50 (COLO 205): > 16 µM
NC(=O)c1cccc(-c2cc(Nc3ccc(OC(F)(F)F)cc3)ncn2)c1		> 1.28 µM	> 1.28 µM	> 1.28 µM															IC50 (NCI-H2107): > 1.28 µM
NC(=O)Nc1cc(-c2cccc(F)c2)sc1C(=O)N[C@H]1CCCNC1 [AZD-7762]						0.919 µM	1.12 µM	> 2 µM	> 2 µM	0.111 µM	0.157 µM	0.318 µM	0.221 µM	> 2 µM	1.49 µM	> 2 µM	> 2 µM	> 2 µM	IC50 (ECC10): > 2 µM; IC50 (H9): 0.122 µM
CC(C)C[C@H](NC(=O)[C@H](Cc1ccccc1)NC(=O)c1cnccn1)B(O)O [BORTEZOMIB]	> 0.02 µM			> 0.02 µM															IC50 (TC-YIK): > 0.02 µM; IC50 (ECC12): 0.00137 µM
O=C(NCCCNc1nc(Nc2cccc(NC(=O)N3CCCC3)c2)ncc1I)c1cccs1 [BX-795]					1.94 µM	1.79 µM	> 5 µM	> 5 µM	> 5 µM	> 5 µM	0.629 µM	1.25 µM	> 5 µM	> 5 µM	2.14 µM	> 5 µM	> 5 µM	> 5 µM	
C[C@@H](Oc1cc(-c2cnn(C3CCNCC3)c2)cnc1N)c1c(Cl)ccc(F)c1Cl [CRIZOTINIB]		> 2 µM	> 2 µM	> 2 µM															IC50 (TC-YIK): > 2 µM
Cc1ccc(-n2nc(C(C)(C)C)cc2NC(=O)Nc2ccc(OCCN3CCOCC3)c3ccccc23)cc1 [DORAMAPIMOD]					> 10 µM	> 10 µM	> 10 µM	> 10 µM	> 10 µM	> 10 µM	> 10 µM	> 10 µM	> 10 µM	> 10 µM	> 10 µM	> 10 µM	> 10 µM	> 10 µM	IC50 (ECC10): > 10 µM; IC50 (H9): > 10 µM
CCCCCCCCCCCC1=C(O)C(=O)C=C(O)C1=O [EMBELIN]	> 32 µM																		IC50 (MES-SA): 16.5 µM; IC50 (HCC1143): 7.14 µM; IC50 (NCI-H838): > 32 µM; IC50 (Calu-1): 17.1 µM; IC50 (Caov-3 cell line): > 32 µM; IC50 (SNU-475): > 32 µM; IC50 (EFE-184): 26.1 µM; IC50 (EW-7): 23.2 µM; IC50 (RT-4): > 32 µM; IC50 (MDA-MB-468): > 32 µM; IC50 (NCI-H1734): 15 µM; IC50 (COLO 205): 3.87 µM
CC(C)C[C@@H](C=O)NC(=O)[C@H](CC(C)C)NC(=O)[C@H](CC(C)C)NC(=O)OCc1ccccc1 [MG-132] (Cbz-Leu-Leu-Leu-aldehyde)	> 1 µM	0.267 µM	> 1 µM																IC50 (TC-YIK): > 1 µM; IC50 (NCI-H2107): > 1 µM; IC50 (ECC12): > 1 µM; IC50 (NCI-H128; nci-h128): > 1 µM
CO[C@@H]1[C@H](N(C)C(=O)c2ccccc2)C[C@H]2O[C@]1(C)n1c3ccccc3c3c4c(c5c6ccccc6n2c5c31)C(=O)NC4 [MIDOSTAURIN]																			IC50 (Calu-1): > 0.512 µM; IC50 (EW-7): > 0.512 µM; IC50 (RT-4): > 0.512 µM
NC1(c2ccc(-c3nc4ccn5c(=O)[nH]nc5c4cc3-c3ccccc3)cc2)CCC1 [MK-2206]					> 4 µM	2.97 µM		> 4 µM	> 4 µM	> 4 µM	2.46 µM	> 4 µM	1.17 µM	> 4 µM	> 4 µM	> 4 µM		> 4 µM	IC50 (ECC10): 3.94 µM; IC50 (H9): 0.389 µM
CC1(C)CCC(c2ccc(Cl)cc2)=C(CN2CCN(c3ccc(C(=O)NS(=O)(=O)c4ccc(N[C@H](CCN5CCOCC5)CSc5ccccc5)c(S(=O)(=O)C(F)(F)F)c4)cc3)CC2)C1 [NAVITOCLAX]					0.163 µM	0.51 µM	> 2 µM	> 2 µM	0.0605 µM	> 2 µM	> 2 µM	> 2 µM	> 2 µM	0.186 µM	> 2 µM	> 2 µM	> 2 µM	> 2 µM	IC50 (ECC10): 0.0379 µM; IC50 (H9): > 2 µM
C/C(=C\c1csc(C)n1)[C@@H]1C[C@@H]2O[C@]2(C)CCC[C@H](C)[C@H](O)[C@@H](C)C(=O)C(C)(C)[C@@H](O)CC(=O)O1 [PATUPILONE]	> 0.032 µM																		IC50 (MES-SA): 0.00198 µM; IC50 (HCC1143): > 0.032 µM; IC50 (NCI-H838): 0.0118 µM; IC50 (Calu-1): 0.0106 µM; IC50 (Caov-3 cell line): 0.0139 µM; IC50 (SNU-475): > 0.032 µM; IC50 (EFE-184): > 0.032 µM; IC50 (EW-7): 0.00225 µM; IC50 (RT-4): > 0.032 µM; IC50 (MDA-MB-468): 0.00175 µM; IC50 (NCI-H1734): 0.016 µM; IC50 (COLO 205): 0.000802 µM
CS(=O)(=O)N1CCN(Cc2cc3nc(-c4cccc5[nH]ncc45)nc(N4CCOCC4)c3s2)CC1 [PICTILISIB]					> 4 µM	2.11 µM	> 4 µM	> 4 µM	> 4 µM	> 4 µM	0.304 µM	0.489 µM	0.687 µM	> 4 µM	1.4 µM	> 4 µM	2.51 µM	> 4 µM	
CN(C)CCOc1ccc(-c2nc(-c3ccncc3)c(-c3ccc4c(c3)CC/C4=N\O)[nH]2)cc1 [SB590885]					> 5 µM	> 5 µM	> 5 µM	> 5 µM	> 5 µM	> 5 µM	> 5 µM	> 5 µM	> 5 µM	> 5 µM	> 5 µM	> 5 µM	> 5 µM	> 5 µM	IC50 (ECC10): > 5 µM; IC50 (H9): 0.401 µM
COc1cc(N2CCC(N3CCN(C)CC3)CC2)ccc1Nc1ncc(Cl)c(Nc2ccccc2S(=O)(=O)C(C)C)n1 [TAE-684]		> 2 µM	0.331 µM	> 2 µM															IC50 (TC-YIK): > 2 µM
